Reference: paper PMC6467875, “An experimentally validated approach to calculate the blood-brain barrier permeability of small molecules” (Scientific Reports, 2019)

What was measured:
bovine BMECs = system: bovine BMECs; set-up: method as in Shah et al. 33; details: transwell, ref Shah et al. 33; cited from earlier work
[1] = source not stated; cited from earlier work
MDCKII cells = system: MDCKII cells; set-up: method as in Summerfield et al. 32; details: transwell, ref Summerfield et al. 32; cited from earlier work
[2] = from experiment; ref Atkinson, Berg, 1988; cited from earlier work
[3] = Transwell permeability assay with iPSC-derived hBMECs; assay type: in vitro ADME; details: human, stem-cell derived hBMECs, obtained as part of this work
Experimental: To validate results from MD simulations, permeabilities for selected molecules were determined using the transwell assay with human induced pluripotent stem cell (iPSC)-derived hBMECs. […] Briefly, hBMECs were sub-cultured onto polyester 12-well transwell inserts with a 0.4 µm pore size (Corning) coated with 1:1 collagen IV (100 µg mL^−1, Sigma) and fibronectin (50 µg mL^−1, Sigma) at a density of 1 × 10^6 cells mL^−1 and allowed to reach confluence for another two days. Permeability experiments were performed only if the transendothelial electrical resistance (TEER) was in excess of 1500 Ω cm^2. Prior to permeability experiments, cells were washed with transport buffer (0.12 M NaCl, 25 mM NaHCO3, 3 mM KCl, 2 mM MgSO4, 2 mM CaCl2, 0.4 mM K2HPO4, 1 mM 4-(2-hydroxyethyl)-1-piperazineethanesulfonic acid (HEPES), and 0.1% human platelet poor derived serum) and 100 µL of the molecule of interest in transport buffer was introduced into the apical well.
Experimentally, solute permeabilities are determined using a transwell assay from the concentrations in the apical (luminal, CL) and basolateral (abluminal, CA) compartments after time t using:10 P=VA⋅CA/(t⋅S⋅CL), where VA is the volume of the basolateral compartment (see Supporting Material for details).

red blood cells = system: red blood cells; set-up: method as in Brahm et al. 40; details: from rate constants km for transport into red blood cells, Papp = km/2; ref Brahm et al. 40; cited from earlier work
[4] = not told; cited from earlier work

SMILES: OCC(O)CO [Glycerol]
- Papp (bovine BMECs): 9.5 ×10⁻⁶ cm/s
- Dipole moment [1]: 2.56 D

SMILES: CCC1(C)CC(=O)NC1=O (stereo not shown) [Ethosuximide]
- Papp (MDCKII cells): 9.7 ×10⁻⁶ cm/s
- Log P, octanol-water partition coefficient [2]: 0.38

SMILES: N [Ammonia]
- Dipole moment [1]: 1.47 D

SMILES: Cn1c(=O)c2c(ncn2C)n(C)c1=O [Caffeine]
- Dipole moment [1]: 3.65 D
- Papp A→B [3]: 21 ×10⁻⁶ cm/s

SMILES: CC(C)O [Isopropanol]
- Papp (red blood cells): 6500 ×10⁻⁶ cm/s
- Dipole moment [1]: 1.58 D

SMILES: CCO [Ethanol]
- Papp (red blood cells): 2100 ×10⁻⁶ cm/s
- Dipole moment [1]: 1.69 D

SMILES: O=C=O [Carbon -dioxide, Carbon dioxide]
- Papp [4]: 1.6 ± 0.4 × 10^−1 cm/s
- Dipole moment [1]: 0 D
